The record followed here is patent US20160106814A1, “Novel Oral Pharmaceutical Composition for Treatment of Diabetes” (NOVO NORDISK A/S, priority 2013, published 2016).

Structures are written as SMILES. *1 amine or outer side, *2 acyl side, *3 side chain or, on linkers, in order; H or OH if unused. Where a SMILES comes first, the peptide text is derived from it. Side-chain parts run from the residue outwards. [ ]: non-standard residue; d: D form. The star is where a group is joined. Decanoyl(10-(4-HOOC-PhO)) = O=C(O)c1ccc(OCCCCCCCCCC(=O)*)cc1; γGlu = O=C(O)[C@H](CCC(=O)[*:2])N[*:1]; C14 diacid = O=C(O)CCCCCCCCCCCCC(=O)*; AEEA = NCCOCCOCC(=O)O; Aib = CC(C)(N)C(=O)O

The data set can be described thus: Transport of GLP-1 peptide across mucus-producing E12 cell monolayers in the presence of sodium caprate and BBI. It is filed as in vitro ADME. The settings on record: pH 7.4, apical to basolateral. On the procedure: Buffer was then removed and the experiment initiated. […] Receiver samples (200 μl) were taken every 15 min.
In all samples with GLP-1 peptide and mannitol, the concentration of GLP-1 peptide was determined using a LOCI assay (or LC-MS assay) and scintillation counter, respectively.

Setting [1] is: 100 μM GLP-1 peptide + 13 mM sodium caprate + 0.2% BBI.
Where [2] appears, read: 100 μM GLP-1 peptide + 13 mM sodium caprate, without BBI.

With `CC[C@H](C)[C@H](NC(=O)[C@H](Cc1ccccc1)NC(=O)[C@H](CCC(=O)O)NC(=O)[C@H](CCCCNC(=O)COCCOCCNC(=O)COCCOCCNC(=O)CC[C@H](NC(=O)CCCCCCCCCOc1ccc(C(=O)O)cc1)C(=O)O)NC(=O)[C@H](C)NC(=O)[C@H](C)NC(=O)[C@H](CCC(N)=O)NC(=O)[C@H](CCC(=O)O)NC(=O)[C@H](CCC(=O)O)NC(=O)[C@H](CC(C)C)NC(=O)[C@H](Cc1ccc(O)cc1)NC(=O)[C@H](CCCCNC(=O)COCCOCCNC(=O)COCCOCCNC(=O)CC[C@H](NC(=O)CCCCCCCCCOc1ccc(C(=O)O)cc1)C(=O)O)NC(=O)[C@H](CO)NC(=O)[C@@H](NC(=O)[C@H](CC(=O)O)NC(=O)[C@H](CO)NC(=O)[C@@H](NC(=O)[C@H](Cc1ccccc1)NC(=O)[C@@H](NC(=O)CNC(=O)[C@H](CCC(=O)O)NC(=O)C(C)(C)NC(=O)[C@@H](N)Cc1c[nH]cn1)[C@@H](C)O)[C@@H](C)O)C(C)C)C(=O)N[C@@H](C)C(=O)N[C@@H](Cc1c[nH]c2ccccc12)C(=O)N[C@@H](CC(C)C)C(=O)N[C@H](C(=O)N[C@@H](CCC(N)=O)C(=O)NCC(=O)N[C@@H](CCCNC(=N)N)C(=O)NCC(=O)O)C(C)C` [GLP-1 peptide 2, N{Epsilon-18}-[2-[2-[2-[[2-[2-[2-[[(4S)-4-carboxy-4-[10-(4-carboxyphenoxy)-decanoylamino]butanoyl]amino]ethoxy]ethoxy]acetyl]amino]ethoxy]ethoxy]acetyl], N{Epsilon-26}-[2-[2-[2-[[2-[2-[2-[[(4S)-4-carboxy-4-[10-(4-carboxyphenoxy)decanoylamino]butanoyl]-amino]ethoxy]ethoxy]acetyl]amino]ethoxy]ethoxy]acetyl]-[Aib8,Lys18,Glu22,Gln34]-GLP-1-(7-37)-peptide], the Papp A→B was determined as 0.438 ×10⁻⁶ cm/s under setting [1] and 0.389 ×10⁻⁶ cm/s under setting [2].
Consider `CC[C@H](C)[C@H](NC(=O)[C@H](Cc1ccccc1)NC(=O)[C@H](CCC(=O)O)NC(=O)[C@H](CCCCNC(=O)COCCOCCNC(=O)COCCOCCNC(=O)CC[C@H](NC(=O)CCCCCCCCCOc1ccc(C(=O)O)cc1)C(=O)O)NC(=O)[C@H](C)NC(=O)[C@H](C)NC(=O)[C@H](CCC(N)=O)NC(=O)[C@H](CCC(=O)O)NC(=O)[C@H](CCC(=O)O)NC(=O)[C@H](CC(C)C)NC(=O)[C@H](Cc1ccc(O)cc1)NC(=O)[C@H](CCCCNC(=O)COCCOCCNC(=O)COCCOCCNC(=O)CC[C@H](NC(=O)CCCCCCCCCOc1ccc(C(=O)O)cc1)C(=O)O)NC(=O)[C@H](CO)NC(=O)[C@@H](NC(=O)[C@H](CC(=O)O)NC(=O)[C@H](CO)NC(=O)[C@@H](NC(=O)[C@H](Cc1ccccc1)NC(=O)[C@@H](NC(=O)CNC(=O)[C@H](CCC(=O)O)NC(=O)C(C)(C)NC(=O)[C@@H](N)Cc1c[nH]cn1)[C@@H](C)O)[C@@H](C)O)C(C)C)C(=O)N[C@@H](C)C(=O)N[C@@H](Cc1c[nH]c2ccccc12)C(=O)N[C@@H](CC(C)C)C(=O)N[C@H](C(=O)N[C@@H](CCCNC(=N)N)C(=O)NCC(=O)N[C@@H](CCCNC(=N)N)C(=O)NCC(=O)O)C(C)C` [GLP-1 peptide 4, N{Epsilon-18}-[2-[2-[2-[[2-[2-[2-[[(4S)-4-carboxy-4-[10-(4-carboxyphenoxy)-decanoylamino]butanoyl]amino]ethoxy]ethoxy]acetyl]amino]ethoxy]ethoxy]acetyl], N{Epsilon-26}-[2-[2-[2-[[2-[2-[2-[[(4S)-4-carboxy-4-[10-(4-carboxyphenoxy)decanoylamino]butanoyl]-amino]ethoxy]ethoxy]acetyl]amino]ethoxy]ethoxy]acetyl]-[Aib8,Lys18,Glu22,Arg34]-GLP-1-(7-37)-peptide] (H-H[Aib]EGTFTSDVSK([AEEA-AEEA-γGlu-Decanoyl(10-(4-HOOC-PhO))])YLEEQAAK([AEEA-AEEA-γGlu-Decanoyl(10-(4-HOOC-PhO))])EFIAWLVRGRG-OH), for which the Papp A→B by setting is: under setting [1], 0.529 ×10⁻⁶ cm/s; under setting [2], 0.204 ×10⁻⁶ cm/s.
Regarding `CC[C@H](C)[C@H](NC(=O)[C@H](Cc1ccccc1)NC(=O)[C@H](CCC(=O)O)NC(=O)[C@H](CCCCNC(=O)COCCOCCNC(=O)COCCOCCNC(=O)CC[C@H](NC(=O)CCCCCCCCCCCCC(=O)O)C(=O)O)NC(=O)[C@H](C)NC(=O)[C@H](C)NC(=O)[C@H](CCC(N)=O)NC(=O)[C@H](CCC(=O)O)NC(=O)[C@H](CCC(=O)O)NC(=O)[C@H](CC(C)C)NC(=O)[C@H](Cc1ccc(O)cc1)NC(=O)[C@H](CCCCNC(=O)COCCOCCNC(=O)COCCOCCNC(=O)CC[C@H](NC(=O)CCCCCCCCCCCCC(=O)O)C(=O)O)NC(=O)[C@H](CO)NC(=O)[C@@H](NC(=O)[C@H](CC(=O)O)NC(=O)[C@H](CO)NC(=O)[C@@H](NC(=O)[C@H](Cc1ccccc1)NC(=O)[C@@H](NC(=O)CNC(=O)[C@H](CCC(=O)O)NC(=O)C(C)(C)NC(=O)[C@@H](N)Cc1c[nH]cn1)[C@@H](C)O)[C@@H](C)O)C(C)C)C(=O)N[C@@H](C)C(=O)N[C@@H](Cc1c[nH]c2ccccc12)C(=O)N[C@@H](CC(C)C)C(=O)N[C@H](C(=O)N[C@@H](CCCNC(=N)N)C(=O)NCC(=O)N[C@@H](CCCNC(=N)N)C(=O)NCC(=O)O)C(C)C` [GLP-1 peptide 5, N{Epsilon-18}-[2-[2-[2-[[2-[2-[2-[[(4S)-4-carboxy-4-(13-carboxytridecanoylamino)butanoyl]amino]ethoxy]ethoxy]acetyl]amino]ethoxy]ethoxy]acetyl], —N{Epsilon-26}-[2-[2-[2-[[2-[2-[2-[[(4S)-4-carboxy-4-(13-carboxytridecanoylamino)butanoyl]-amino]ethoxy]ethoxy]acetyl]amino]ethoxy]ethoxy]acetyl]-[Aib8,Lys18,Glu22,Arg34]-GLP-1-(7-37)-peptide] (H-H[Aib]EGTFTSDVSK([AEEA-AEEA-γGlu-C14 diacid])YLEEQAAK([AEEA-AEEA-γGlu-C14 diacid])EFIAWLVRGRG-OH), the apparent permeability from apical to basolateral (Papp A→B) by setting is: under setting [1], 0.592 ×10⁻⁶ cm/s; under setting [2], 0.314 ×10⁻⁶ cm/s.
The corresponding values for `CC[C@H](C)[C@H](NC(=O)[C@H](Cc1ccccc1)NC(=O)[C@H](CCC(=O)O)NC(=O)[C@H](CCCCNC(=O)COCCOCCNC(=O)COCCOCCNC(=O)CC[C@H](NC(=O)CCCCCCCCCOc1ccc(C(=O)O)cc1)C(=O)O)NC(=O)[C@H](C)NC(=O)[C@H](C)NC(=O)[C@H](CCC(N)=O)NC(=O)CNC(=O)[C@H](CCC(=O)O)NC(=O)[C@H](CC(C)C)NC(=O)[C@H](Cc1ccc(O)cc1)NC(=O)[C@H](CCCCNC(=O)COCCOCCNC(=O)COCCOCCNC(=O)CC[C@H](NC(=O)CCCCCCCCCOc1ccc(C(=O)O)cc1)C(=O)O)NC(=O)[C@H](CO)NC(=O)[C@@H](NC(=O)[C@H](CC(=O)O)NC(=O)[C@H](CO)NC(=O)[C@@H](NC(=O)[C@H](Cc1ccccc1)NC(=O)[C@@H](NC(=O)CNC(=O)[C@H](CCC(=O)O)NC(=O)C(C)(C)NC(=O)[C@@H](N)Cc1c[nH]cn1)[C@@H](C)O)[C@@H](C)O)C(C)C)C(=O)N[C@@H](C)C(=O)N[C@@H](Cc1c[nH]c2ccccc12)C(=O)N[C@@H](CC(C)C)C(=O)N[C@H](C(=O)N[C@@H](CCC(N)=O)C(=O)NCC(=O)N[C@@H](CCCNC(=N)N)C(=O)NCC(=O)O)C(C)C` [GLP-1 peptide 6, N{Epsilon-18}-[2-[2-[2-[[2-[2-[2-[[(4S)-4-carboxy-4-[10-(4-carboxyphenoxy)-decanoylamino]butanoyl]amino]ethoxy]ethoxy]acetyl]amino]ethoxy]ethoxy]acetyl], N{Epsilon-26}-[2-[2-[2-[[2-[2-[2-[[(4S)-4-carboxy-4-[10-(4-carboxyphenoxy)decanoylamino]butanoyl]-amino]ethoxy]ethoxy]acetyl]amino]ethoxy]ethoxy]acetyl]-[Aib8,Lys18,Gln34]-GLP-1-(7-37)-peptide] are 0.296 ×10⁻⁶ cm/s and 0.159 ×10⁻⁶ cm/s.
On to `CC[C@H](C)[C@H](NC(=O)[C@H](Cc1ccccc1)NC(=O)[C@H](CCC(=O)O)NC(=O)[C@H](CCCCNC(=O)COCCOCCNC(=O)COCCOCCNC(=O)CC[C@H](NC(=O)CCCCCCCCCCCCCCCCC(=O)O)C(=O)O)NC(=O)[C@H](C)NC(=O)[C@H](C)NC(=O)[C@H](CCC(N)=O)NC(=O)CNC(=O)[C@H](CCC(=O)O)NC(=O)[C@H](CC(C)C)NC(=O)[C@H](Cc1ccc(O)cc1)NC(=O)[C@H](CO)NC(=O)[C@H](CO)NC(=O)[C@@H](NC(=O)[C@H](CC(=O)O)NC(=O)[C@H](CO)NC(=O)[C@@H](NC(=O)[C@H](Cc1ccccc1)NC(=O)[C@@H](NC(=O)CNC(=O)[C@H](CCC(=O)O)NC(=O)C(C)(C)NC(=O)[C@@H](N)Cc1c[nH]cn1)[C@@H](C)O)[C@@H](C)O)C(C)C)C(=O)N[C@@H](C)C(=O)N[C@@H](Cc1c[nH]cn1)C(=O)N[C@@H](CC(C)C)C(=O)N[C@H](C(=O)N[C@@H](CCC(N)=O)C(=O)NCC(=O)N[C@@H](CCCNC(=N)N)C(=O)NCC(=O)O)C(C)C` [GLP-1 peptide 8, N{Epsilon-26}-[2-[2-[2-[[2-[2-[2-[[(4S)-4-carboxy-4-(17-carboxy-heptadecanoylamino)butanoyl]amino]ethoxy]ethoxy]acetyl]amino]ethoxy]ethoxy]acetyl]-[Aib8,His31,Gln34]-GLP-1-(7-37)-peptide], for which the Papp A→B reads like this: under setting [1], 0.363 ×10⁻⁶ cm/s; under setting [2], 0.184 ×10⁻⁶ cm/s.

In general, Papp A→B refers to the apparent permeability from the apical to the basolateral side of a cell layer.
